Source: article PMC8794222 (Photochemistry and photobiology, 2020)
Each block holds one compound with its values, some of them ahead of it. Ends that are not written are not given here.

What was measured:
[1] = molecular target: T1, extracellular domain of EGFR protein (Homo sapiens, UniProt P00533); conditions: cited from earlier work
[2] = molecular target: T1, extracellular domain of EGFR protein; assay: SPR analysis on immobilized EGFR extracellular domain; assay type: binding; conditions: analyte up to 250 μM, HBS-EP+ with 4% DMSO

Compound: 2: EGFR-L1 sequence modified with a glycine spacer, amide terminus (GLARLLT-NH2) [compound 2]
- Association and dissociation with EGFR ECD by SPR (in words) ([1]; earlier studies): fast association and dissociation

- Kind of binding to EGFR ECD in SPR sensorgram (in words) [2]: non-specific binding
Compound: CC1=CC(C)=[N+]2C1=C(CCCC(=O)O)c1c(C)cc(C)n1[B-]2(F)F [BODIPY 1]

Compound: cyclo(K(N3)larllt) [reference compound]
- Binding to EGFR (in words) ([1]; previously shown): high affinity
